# Measured values as given in PubChem BioAssay (NCI).
#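 Protocol summary: plate cells (96-well), add compound at 5 concentrations, incubate 48 h, interpolate endpoints linearly. At the GI50, growth is halved. TGI marks complete inhibition of growth.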
# How the values were obtained:
# Assay in all cases: NCI-60 cell line screen, 48 h
# SN12C renal = test system: SN12C renal
# EKVX NSCLC = test system: EKVX NSCLC
# HT29 colon = test system: HT29 colon
# COLO 205 colon = test system: COLO 205 colon
# MOLT-4 leukemia = test system: MOLT-4 leukemia
# A498 renal = test system: A498 renal
# DU-145 prostate = test system: DU-145 prostate
# SK-MEL-2 melanoma = test system: SK-MEL-2 melanoma
# HCT-15 colon = test system: HCT-15 colon
# SK-MEL-28 melanoma = test system: SK-MEL-28 melanoma
# HOP-92 NSCLC = test system: HOP-92 NSCLC
# OVCAR-3 ovarian = test system: OVCAR-3 ovarian
# RPMI-8226 leukemia = test system: RPMI-8226 leukemia
# ACHN renal = test system: ACHN renal
# UACC-62 melanoma = test system: UACC-62 melanoma
# OVCAR-4 ovarian = test system: OVCAR-4 ovarian
# SF-539 CNS = test system: SF-539 CNS
# SK-MEL-5 melanoma = test system: SK-MEL-5 melanoma
# IGROV1 ovarian = test system: IGROV1 ovarian
# MDA-MB-231 breast = test system: MDA-MB-231 breast
# SK-OV-3 ovarian = test system: SK-OV-3 ovarian
# SW-620 colon = test system: SW-620 colon
# CCRF-CEM leukemia = test system: CCRF-CEM leukemia
# TK-10 renal = test system: TK-10 renal
# NCI/ADR-RES ovarian = test system: NCI/ADR-RES ovarian
# MDA-MB-435 = test system: MDA-MB-435
# HCC-2998 colon = test system: HCC-2998 colon
# 786-0 renal = test system: 786-0 renal
# NCI-H23 lung = test system: NCI-H23 lung
# BT-549 breast = test system: BT-549 breast
# OVCAR-8 ovarian = test system: OVCAR-8 ovarian
# LOX IMVI melanoma = test system: LOX IMVI melanoma
# HL-60(TB) leukemia = test system: HL-60(TB) leukemia
# M14 melanoma = test system: M14 melanoma
# SNB-19 CNS = test system: SNB-19 CNS
# UO-31 renal = test system: UO-31 renal
# SNB-75 CNS = test system: SNB-75 CNS
# SR leukemia = test system: SR leukemia
# KM12 colon = test system: KM12 colon
# UACC-257 melanoma = test system: UACC-257 melanoma
# HOP-62 NSCLC = test system: HOP-62 NSCLC
# K-562 leukemia = test system: K-562 leukemia
# NCI-H226 lung = test system: NCI-H226 lung
# SF-268 CNS = test system: SF-268 CNS
# MCF7 breast = test system: MCF7 breast
# A549 NSCLC = test system: A549 NSCLC
# CAKI-1 renal = test system: CAKI-1 renal
# PC-3 prostate = test system: PC-3 prostate
# HS 578T breast = test system: HS 578T breast
# SF-295 CNS = test system: SF-295 CNS
# NCI-H460 lung = test system: NCI-H460 lung
# HCT-116 colon = test system: HCT-116 colon
# U251 CNS = test system: U251 CNS
# RXF 393 renal = test system: RXF 393 renal
# OVCAR-5 ovarian = test system: OVCAR-5 ovarian
# NCI-H522 lung = test system: NCI-H522 lung
smiles,measurement,setting,value
CCCn1cnc2c(c1=N)C(c1ccc(F)cc1)c1sc3c(CC)cccc3c1O2 (stereo unspecified),GI50,SN12C renal,398 nM
same,TGI,SN12C renal,22500 nM
same,GI50,EKVX NSCLC,481 nM
same,TGI,EKVX NSCLC,> 100000 nM
same,GI50,HT29 colon,302 nM
same,TGI,HT29 colon,27300 nM
same,GI50,COLO 205 colon,354 nM
same,TGI,COLO 205 colon,1950 nM
same,GI50,MOLT-4 leukemia,434 nM
same,TGI,MOLT-4 leukemia,> 100000 nM
same,GI50,A498 renal,79.9 nM
same,TGI,A498 renal,1040 nM
same,GI50,DU-145 prostate,309 nM
same,TGI,DU-145 prostate,15300 nM
same,GI50,SK-MEL-2 melanoma,7570 nM
same,TGI,SK-MEL-2 melanoma,> 100000 nM
same,GI50,HCT-15 colon,179 nM
same,TGI,HCT-15 colon,> 100000 nM
same,GI50,SK-MEL-28 melanoma,8900 nM
same,TGI,SK-MEL-28 melanoma,> 100000 nM
same,GI50,HOP-92 NSCLC,53.8 nM
same,TGI,HOP-92 NSCLC,4190 nM
same,GI50,OVCAR-3 ovarian,68 nM
same,TGI,OVCAR-3 ovarian,7680 nM
same,GI50,RPMI-8226 leukemia,200 nM
same,TGI,RPMI-8226 leukemia,> 22900 nM
same,GI50,ACHN renal,133 nM
same,TGI,ACHN renal,49900 nM
same,GI50,UACC-62 melanoma,38 nM
same,TGI,UACC-62 melanoma,29000 nM
same,GI50,OVCAR-4 ovarian,336 nM
same,TGI,OVCAR-4 ovarian,> 100000 nM
same,GI50,SF-539 CNS,94.9 nM
same,TGI,SF-539 CNS,815 nM
same,GI50,SK-MEL-5 melanoma,99.8 nM
same,TGI,SK-MEL-5 melanoma,1200 nM
same,GI50,IGROV1 ovarian,176 nM
same,TGI,IGROV1 ovarian,24000 nM
same,GI50,MDA-MB-231 breast,325 nM
same,TGI,MDA-MB-231 breast,> 62300 nM
same,GI50,SK-OV-3 ovarian,1210 nM
same,TGI,SK-OV-3 ovarian,35000 nM
same,GI50,SW-620 colon,237 nM
same,TGI,SW-620 colon,> 100000 nM
same,GI50,CCRF-CEM leukemia,314 nM
same,TGI,CCRF-CEM leukemia,> 67900 nM
same,GI50,TK-10 renal,19400 nM
same,TGI,TK-10 renal,> 100000 nM
same,GI50,NCI/ADR-RES ovarian,50.1 nM
same,TGI,NCI/ADR-RES ovarian,26400 nM
same,GI50,MDA-MB-435,23.9 nM
same,TGI,MDA-MB-435,60 nM
same,GI50,HCC-2998 colon,337 nM
same,TGI,HCC-2998 colon,38700 nM
same,GI50,786-0 renal,443 nM
same,TGI,786-0 renal,> 89200 nM
same,GI50,NCI-H23 lung,138 nM
same,TGI,NCI-H23 lung,19300 nM
same,GI50,BT-549 breast,1990 nM
same,TGI,BT-549 breast,19100 nM
same,GI50,OVCAR-8 ovarian,434 nM
same,TGI,OVCAR-8 ovarian,> 100000 nM
same,GI50,LOX IMVI melanoma,40.4 nM
same,TGI,LOX IMVI melanoma,31300 nM
same,GI50,HL-60(TB) leukemia,243 nM
same,TGI,HL-60(TB) leukemia,1080 nM
same,GI50,M14 melanoma,182 nM
same,TGI,M14 melanoma,33600 nM
same,GI50,SNB-19 CNS,273 nM
same,TGI,SNB-19 CNS,49400 nM
same,GI50,UO-31 renal,81.3 nM
same,TGI,UO-31 renal,> 100000 nM
same,GI50,SNB-75 CNS,35.3 nM
same,TGI,SNB-75 CNS,36500 nM
same,GI50,SR leukemia,117 nM
same,TGI,SR leukemia,> 42300 nM
same,GI50,KM12 colon,275 nM
same,TGI,KM12 colon,> 42300 nM
same,GI50,UACC-257 melanoma,27500 nM
same,TGI,UACC-257 melanoma,> 100000 nM
same,GI50,HOP-62 NSCLC,423 nM
same,TGI,HOP-62 NSCLC,29700 nM
same,GI50,K-562 leukemia,58.3 nM
same,TGI,K-562 leukemia,> 100000 nM
same,GI50,NCI-H226 lung,395 nM
same,GI50,SF-268 CNS,241 nM
same,TGI,SF-268 CNS,> 100000 nM
same,GI50,MCF7 breast,24.7 nM
same,TGI,MCF7 breast,> 100000 nM
same,GI50,A549 NSCLC,236 nM
same,TGI,A549 NSCLC,> 90700 nM
same,GI50,CAKI-1 renal,62.1 nM
same,TGI,CAKI-1 renal,18300 nM
same,GI50,PC-3 prostate,79.8 nM
same,TGI,PC-3 prostate,> 51400 nM
same,GI50,HS 578T breast,86.4 nM
same,TGI,HS 578T breast,> 88000 nM
same,GI50,SF-295 CNS,47.8 nM
same,TGI,SF-295 CNS,> 47900 nM
same,GI50,NCI-H460 lung,211 nM
same,TGI,NCI-H460 lung,13900 nM
same,GI50,HCT-116 colon,263 nM
same,TGI,HCT-116 colon,4770 nM
same,GI50,U251 CNS,273 nM
same,TGI,U251 CNS,> 40600 nM
same,GI50,RXF 393 renal,29.4 nM
same,TGI,RXF 393 renal,130 nM
same,GI50,OVCAR-5 ovarian,493 nM
same,TGI,OVCAR-5 ovarian,> 100000 nM
same,GI50,NCI-H522 lung,35.9 nM
same,TGI,NCI-H522 lung,8080 nM
